Calls of active or inactive are those of the source. The rule behind the calls is not given here.
Key:
MGC-803 [1] = assay: Inhibition of cell migration in human MGC-803 cells assessed as downregulation of Vimentin at 2 to 8 uM for 48 hrs by western blot analysis; assay type: functional, cell-based; conditions: dose 2-8 µM
MGC-803 [2] = assay: Induction of apoptosis in human MGC-803 cells assessed as apoptotic cells at 5 uM incubated for 48 hrs by annexin V-FITC and PI staining based flowcytometry analysis (Rvb =4.3 %); assay type: functional
[3] = Metabolic stability in human liver microsomes assessed as half life in presence of NADPH at 1 uM by LC-MS/MS analysis; assay type: ADME, Microsome
[4] = target: Amine oxidase [flavin-containing] B (Homo sapiens, UniProt P27338); assay: Inhibition of human recombinant MAO-B by multimode plate reader assay
Amine oxidase [flavin-containing] B, sequence (P27338 whole entry): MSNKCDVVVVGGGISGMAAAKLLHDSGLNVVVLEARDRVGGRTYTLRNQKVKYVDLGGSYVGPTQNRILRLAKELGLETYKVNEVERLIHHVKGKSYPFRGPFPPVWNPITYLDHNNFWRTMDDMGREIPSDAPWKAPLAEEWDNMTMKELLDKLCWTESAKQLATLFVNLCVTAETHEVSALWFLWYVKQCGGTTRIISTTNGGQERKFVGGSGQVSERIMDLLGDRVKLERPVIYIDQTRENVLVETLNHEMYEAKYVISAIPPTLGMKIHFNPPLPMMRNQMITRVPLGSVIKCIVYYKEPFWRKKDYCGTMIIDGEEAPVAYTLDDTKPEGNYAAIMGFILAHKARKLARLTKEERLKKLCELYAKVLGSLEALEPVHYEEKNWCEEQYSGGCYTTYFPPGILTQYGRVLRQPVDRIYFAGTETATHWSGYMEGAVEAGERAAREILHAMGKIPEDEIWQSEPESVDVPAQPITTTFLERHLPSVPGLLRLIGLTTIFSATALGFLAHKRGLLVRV

MGC-803 [5] = assay: Inhibition of cell migration in human MGC-803 cells assessed as upregulation of ZO-1 at 2 to 8 uM for 48 hrs by western blot analysis; assay type: functional, cell-based; conditions: dose 2-8 µM
MGC-803 [6] = assay: Inhibition of cell migration in human MGC-803 cells assessed as upregulation of E-cadherin at 2 to 8 uM for 48 hrs by western blot analysis; assay type: functional, cell-based; conditions: dose 2-8 µM
MGC-803 [7] = assay: Inhibition of cell migration in human MGC-803 cells 4 to 8 uM up to 24 hrs by Hoechst 33258 staining based transwell migration assay; assay type: functional; conditions: dose 4-8 µM, time hrs <=24
Histone deacetylase 8 = Histone deacetylase 8 (Homo sapiens, UniProt Q9BY41); assay: Inhibition of HDAC8 (unknown origin) using Ac-peptide as substrate preincubated for 15 mins followed by substrate addition by fluorescence based microplate reader analysis
Histone deacetylase 8, sequence (Q9BY41 whole entry): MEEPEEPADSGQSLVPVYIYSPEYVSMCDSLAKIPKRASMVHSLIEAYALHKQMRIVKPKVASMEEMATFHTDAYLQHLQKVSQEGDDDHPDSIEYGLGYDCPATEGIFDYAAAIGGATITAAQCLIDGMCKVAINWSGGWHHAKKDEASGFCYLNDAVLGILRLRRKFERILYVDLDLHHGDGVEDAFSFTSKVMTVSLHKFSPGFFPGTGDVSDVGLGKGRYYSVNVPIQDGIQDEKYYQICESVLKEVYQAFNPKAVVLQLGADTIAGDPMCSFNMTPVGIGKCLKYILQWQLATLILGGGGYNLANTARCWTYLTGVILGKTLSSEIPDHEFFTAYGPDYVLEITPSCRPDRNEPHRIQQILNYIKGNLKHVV

MGC-803 [8] = assay: Inhibition of colony formation in human MGC-803 cells assessed as reduction in colony formation at 4 to 8 uM measured after 7 days by crystal violet staining based microscopic analysis; assay type: functional, cell-based; conditions: dose 4-8 µM, time 7.0 day
MGC-803 [9] = assay: Inhibition of cell migration in human MGC-803 cells at 2 to 8 uM up to 24 hrs by wound healing assay; assay type: functional, cell-based; conditions: dose 2-8 µM, time hrs <=24
[10] = target: Amine oxidase [flavin-containing] A (Homo sapiens, UniProt P21397); assay: Inhibition of human recombinant MAO-A by multimode plate reader assay
Amine oxidase [flavin-containing] A, sequence (P21397 whole entry): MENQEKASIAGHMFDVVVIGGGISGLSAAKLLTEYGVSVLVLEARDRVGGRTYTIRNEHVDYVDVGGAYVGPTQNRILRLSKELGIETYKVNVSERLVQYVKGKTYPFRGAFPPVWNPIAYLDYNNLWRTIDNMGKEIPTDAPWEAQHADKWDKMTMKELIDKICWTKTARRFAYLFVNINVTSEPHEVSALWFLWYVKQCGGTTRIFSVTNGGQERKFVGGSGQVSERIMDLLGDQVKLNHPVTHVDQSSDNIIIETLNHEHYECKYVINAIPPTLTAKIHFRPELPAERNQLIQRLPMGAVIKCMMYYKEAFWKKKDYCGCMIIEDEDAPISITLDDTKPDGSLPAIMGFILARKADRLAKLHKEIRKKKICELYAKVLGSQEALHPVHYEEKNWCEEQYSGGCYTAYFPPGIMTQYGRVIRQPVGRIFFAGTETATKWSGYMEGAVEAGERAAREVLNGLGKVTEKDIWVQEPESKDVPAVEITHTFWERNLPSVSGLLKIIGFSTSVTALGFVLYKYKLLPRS

BGC-823 = assay: cells; conditions: Homo sapiens, BGC-823, 72 h
Histone deacetylase 2 = Histone deacetylase 2 (Homo sapiens, UniProt Q92769)
Histone deacetylase 2, sequence (Q92769 whole entry): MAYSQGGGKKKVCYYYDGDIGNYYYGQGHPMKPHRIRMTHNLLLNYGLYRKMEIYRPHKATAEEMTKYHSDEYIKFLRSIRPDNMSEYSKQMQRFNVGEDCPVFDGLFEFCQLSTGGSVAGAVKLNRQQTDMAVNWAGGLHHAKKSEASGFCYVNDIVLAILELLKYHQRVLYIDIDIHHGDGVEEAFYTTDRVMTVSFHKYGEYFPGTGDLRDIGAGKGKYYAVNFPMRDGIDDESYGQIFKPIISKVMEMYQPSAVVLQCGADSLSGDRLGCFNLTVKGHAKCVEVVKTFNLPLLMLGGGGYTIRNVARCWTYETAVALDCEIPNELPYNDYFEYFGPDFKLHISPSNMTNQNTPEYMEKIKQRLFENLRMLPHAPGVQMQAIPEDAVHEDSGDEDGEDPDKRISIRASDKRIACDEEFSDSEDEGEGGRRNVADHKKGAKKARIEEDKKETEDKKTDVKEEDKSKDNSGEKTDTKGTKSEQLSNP

MGC-803 [11] = assay: Inhibition of cell migration in human MGC-803 cells assessed as downregulation of Vimentin at 0.2 to 0.6 uM for 48 hrs by western blot analysis; assay type: functional, cell-based; conditions: dose 0.2-0.6 µM
MKN-1 = assay: cells; conditions: Homo sapiens, MKN-1, 72 h
MKN-45 = assay: cells; conditions: Homo sapiens, MKN-45, 72 h
MGC-803 [12] = assay: Inhibition of cell migration in human MGC-803 cells assessed as upregulation of E-cadherin at 0.2 to 0.6 uM for 48 hrs by western blot analysis; assay type: functional, cell-based; conditions: dose 0.2-0.6 µM
MGC-803 [13] = assay: Inhibition of cell migration in human MGC-803 cells assessed as upregulation of ZO-1 at 0.2 to 0.6 uM for 48 hrs by western blot analysis; assay type: functional, cell-based; conditions: dose 0.2-0.6 µM
AGS = assay: cells; conditions: Homo sapiens, 72 h
MGC-803 [14] = assay: Inhibition of colony formation in human MGC-803 cells assessed as reduction in colony formation at 0.2 to 0.6 uM measured after 7 days by crystal violet staining based microscopic analysis; assay type: functional, cell-based; conditions: dose 0.2-0.6 µM, time 7.0 day
NCI-N87 = assay: cells; conditions: Homo sapiens, NCI-N87, 72 h
MGC-803 [15] = assay: Inhibition of cell migration in human MGC-803 cells 0.2 to 0.6 uM up to 24 hrs by Hoechst 33258 staining based transwell migration assay; assay type: functional; conditions: dose 0.2-0.6 µM, time hrs <=24
SNU1 = assay: cells; conditions: Homo sapiens, SNU1, 72 h

O=C(NO)c1ccc(/C=C/c2ccnc(-c3ccccc3O)c2)cc1
Activity (MGC-803 [1]): Active | Activity (MGC-803 [2]): 71.9% | half-life at 1 µM [3]: 33 min | IC50 [4]: 69.4 µM | Activity (MGC-803 [5]): Active | Activity (MGC-803 [6]): Active | inhibition (MGC-803 [7]): Dose-Dependent Effect | IC50 (Histone deacetylase 8): 4.62 µM | Activity (MGC-803 [8]): Dose-Dependent Effect | inhibition (MGC-803 [9]): Dose-Dependent Effect | IC50 [10]: 34.1 µM

Cc1ccc(-c2cc(/C=C/c3ccc(C(=O)NO)cc3)ccn2)c(F)c1
IC50 (BGC-823): 1.5 µM | IC50 (Histone deacetylase 2): 0.404 µM | Activity (MGC-803 [11]): Active | IC50 (MKN-1): 0.4 µM | Activity (MGC-803 [2]): 82.2% | IC50 (MKN-45): 1.16 µM | half-life at 1 µM [3]: 51.3 min | IC50 [4]: > 100 µM | Activity (MGC-803 [12]): Active | Activity (MGC-803 [13]): Active | IC50 (AGS): 1.56 µM | inhibition (MGC-803 [14]): Dose-Dependent Effect | IC50 (Histone deacetylase 8): 8.78 µM | IC50 (NCI-N87): 0.23 µM | inhibition (MGC-803 [15]): Dose-Dependent Effect | IC50 (SNU1): 1.01 µM | IC50 [10]: > 100 µM

Reference: ChEMBL document CHEMBL5038581, “Design, synthesis, and biological evaluation of novel dual inhibitors targeting lysine specific demethylase 1 (LSD1) and histone deacetylases (HDAC) for treatment of gastric cancer” (Eur J Med Chem, 2021)
